Results on 1 molecule are retold here after patent US20070281960A1, “Anti-Histaminic Composition” (priority 2004, published 2007).

Data set [1] in a line: Compatibility of desloratadine with common excipients. The note with it: lactose, magnesium stearate, microcrystalline stearate; degrades and changes to a pink colour. Type of data set: physicochemical. The source says:
Therefore, extreme caution needs to be taken when formulating desloratadine with various excipients. […] This decomposition is further accelerated under high temperature and humid conditions.

Data set [2] relates to human mast cells. The note with it: in vitro; cited from earlier work.

As for `Clc1ccc2c(c1)CCc1cccnc1C2=C1CCNCC1` [Desloratadine, 8-chloro-6,11-dihydro-11-(4-piperidylidene)-5-H-benzo [5,6] cyclohepta [1,2-b] pyridine], in data set [1], the “compatibility with common excipients” value is reported as “incompatible”. The “histamine release from human mast cells” value in data set [2] is “inhibits histamine release”.
